Measurements from US6737383B1, “Herbicidal oxadiazolidines” (priority 1999, dated 2004).

Tests used:
bamyardgrass = assay: Test B flood test barnyardgrass; format: in vivo, Echinochloa crus-galli
Outline: (§1)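 Read-out is a visual response score from 0 (no effect) to 10 (complete control), assigned by comparison with untreated controls. Treatment was applied at the 2-leaf stage, and plants stayed in the greenhouse for twelve to sixteen days before scoring.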

sugar beet = assay: Test B pre/postemergence sugar beet; format: in vivo, Beta vulgaris
Outline: (§2)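 Test chemicals in a non-phytotoxic solvent mixture with surfactant were sprayed preemergence onto planted seeds and postemergence onto plants 2 to 18 cm tall (1- to 4-leaf stage). After twelve to sixteen days in a greenhouse, injury was visually rated against untreated controls from 0 (no effect) to 10 (complete control).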

cocklebur = assay: Test B pre/postemergence cocklebur; format: in vivo, Xanthium strumarium
Outline: as §2

smallflower flatsedge = assay: Test B flood test smallflower flatsedge; format: in vivo, Cyperus difformis
Outline: as §1

[1] = Postemergence (flood test species), Rate 125 g/ha, scale of 0 to 10 where 0 is no effect and 10 is complete control
[2] = Rate 62 g/ha, Postemergence section, flood test species, scale of 0 to 10 where 0 is no effect and 10 is complete control
[3] = Rate 250 g/ha, Postemergence (flood test), scale 0 to 10, 0 is no effect, 10 is complete control
[4] = Rate 500 g/ha, listed under Postemergence (flood test species), scale 0 to 10
[5] = Postemergence, Rate 125 g/ha, scale of 0 to 10 where 0 is no effect and 10 is complete control
[6] = Preemergence, Rate 62 g/ha, scale of 0 to 10 where 0 is no effect and 10 is complete control
[7] = Preemergence, Rate 125 g/ha, 0 is no effect, 10 is complete control
[8] = Preemergence, Rate 250 g/ha, scale 0 to 10, 0 is no effect, 10 is complete control
[9] = Preemergence, Rate 500 g/ha, scale 0 to 10 (0 no effect, 10 complete control)
[10] = Rate 62 g/ha, Postemergence, scale of 0 to 10 where 0 is no effect and 10 is complete control
[11] = Rate 250 g/ha, Postemergence, scale 0 to 10, 0 is no effect, 10 is complete control
[12] = Rate 500 g/ha, Postemergence, scale 0 to 10
[13] = Pre-emergence, Rate 1000 g/ha, scale 0 to 10 (0 no effect, 10 complete control)
[14] = Rate 125 g/ha, under heading Pre-emergence, flood test species, visual evaluation after twelve to sixteen days
[15] = Rate 250 g/ha, Pre-emergence (flood test species), scale 0 to 10, 0 is no effect, 10 is complete control
[16] = Rate 500 g/ha, Pre-emergence section of Table B, 0 to 10 scale (0 no effect, 10 complete control)
[17] = Postemergence, Rate 250 g/ha, scale of 0 to 10, 0 is no effect, 10 is complete control
[18] = Postemergence, Rate 500 g/ha, scale of 0 to 10 where 0 is no effect and 10 is complete control
[19] = Postemergence, Rate 1000 g/ha, scale 0 to 10 (0 no effect, 10 complete control)
[20] = Preemergence, Rate 125 g/ha, scale of 0 to 10 where 0 is no effect and 10 is complete control
[21] = Preemergence, Rate 250 g/ha, scale 0 to 10 (0 no effect, 10 complete control)
[22] = Preemergence, Rate 500 g/ha, scale of 0 to 10 where 0 is no effect and 10 is complete control
[23] = Rate 1000 g/ha, Preemergence, scale 0 to 10 (0 no effect, 10 complete control)
[24] = Postemergence block (flood test species), Rate 250 g/ha, scale 0 to 10
[25] = Postemergence section (flood test species), Rate 500 g/ha, scale of 0 to 10 where 0 is no effect and 10 is complete control
[26] = Rate 125 g/ha, Postemergence section (flood test species), scale 0 to 10, 0 is no effect, 10 is complete control
[27] = Postemergence, Rate 250 g/ha, scale 0 to 10
[28] = Preemergence, Rate 62 g/ha, scale 0 to 10 (0 no effect, 10 complete control)
[29] = Preemergence, Rate 500 g/ha, scale 0 to 10, 0 is no effect, 10 is complete control
[30] = Rate 125 g/ha, Postemergence, scale 0 to 10, 0 is no effect, 10 is complete control

## Cc1nsc(C)c1-n1c(=O)on(C(=O)N(c2ccc(Cl)cc2)C(C)C)c1=O [Compound 159]
bamyardgrass; [1]
  Barnyardgrass plant response rating: 0
bamyardgrass; [2]
  Barnyardgrass plant response rating: 0
bamyardgrass; [3]
  Plant response rating, Barnyardgrass: 0
bamyardgrass; [4]
  Barnyardgrass plant response rating: 0
Sugar beet; [5]
  Sugarbeets plant response rating: 0
Sugar beet; [6]
  Sugarbeets plant response rating: 0
Sugar beet; [7]
  Sugarbeets plant response rating (0 to 10 scale): 0
Sugar beet; [8]
  Sugarbeets plant response rating: 0
Sugar beet; [9]
  Sugarbeets plant response rating: 0
Sugar beet; [10]
  Sugarbeets plant response rating: 0
Sugar beet; [11]
  Plant response rating, Sugarbeets: 0
Sugar beet; [12]
  Sugarbeets plant response rating: 0
cocklebur; [5]
  Cocklebur plant response rating: 0
cocklebur; [6]
  Cocklebur plant response rating: 0
cocklebur; [7]
  Cocklebur plant response rating (0 to 10 scale): 0
cocklebur; [8]
  Cocklebur plant response rating: 0
cocklebur; [9]
  Cocklebur plant response rating: 0
cocklebur; [10]
  Cocklebur plant response rating: 0
cocklebur; [11]
  Plant response rating, Cocklebur: 0
cocklebur; [12]
  Cocklebur plant response rating: 0
Smallflower flatsedge; [1]
  S. Flatsedge plant response rating: 0
Smallflower flatsedge; [2]
  S. Flatsedge plant response rating: 0
Smallflower flatsedge; [3]
  Plant response rating, S. Flatsedge: 0
Smallflower flatsedge; [4]
  S. Flatsedge plant response rating: 0

## COC(=O)C(C)n1c(=O)on(C(=O)N(c2ccc(F)cc2)C(C)C)c1=O (stereo not shown) [Compound 616]
bamyardgrass; [13]
  Barnyardgrass plant response rating: 0
bamyardgrass; [14]
  Barnyardgrass plant response rating (0 to 10 scale, 0 is no effect, 10 is complete control): 0
bamyardgrass; [15]
  Barnyardgrass plant response rating: 0
bamyardgrass; [16]
  Barnyardgrass plant response rating: 0
Sugar beet; [5]
  Plant response rating, Sugarbeets: 0
Sugar beet; [17]
  Sugarbeets plant response rating: 0
Sugar beet; [18]
  Plant response rating, Sugarbeets: 2
Sugar beet; [19]
  Sugarbeets plant response rating: 2
Sugar beet; [20]
  Sugarbeets plant response rating: 0
Sugar beet; [21]
  Plant response rating, Sugarbeets: 0
Sugar beet; [22]
  Plant response rating, Sugarbeets: 1
Sugar beet; [23]
  Plant response rating, Sugarbeets: 7
cocklebur; [5]
  Plant response rating, Cocklebur: 0
cocklebur; [17]
  Cocklebur plant response rating: 0
cocklebur; [18]
  Plant response rating, Cocklebur: 0
cocklebur; [19]
  Cocklebur plant response rating: 3
cocklebur; [20]
  Cocklebur plant response rating: 0
cocklebur; [21]
  Plant response rating, Cocklebur: 0
cocklebur; [22]
  Plant response rating, Cocklebur: 0
cocklebur; [23]
  Plant response rating, Cocklebur: 0
Smallflower flatsedge; [13]
  S. Flatsedge plant response rating: 0
Smallflower flatsedge; [14]
  S. Flatsedge plant response rating (0 to 10 scale, 0 is no effect, 10 is complete control): 0
Smallflower flatsedge; [15]
  S. Flatsedge plant response rating: 0
Smallflower flatsedge; [16]
  S. Flatsedge plant response rating: 0

## CC(C)N(C(=O)n1oc(=O)n(C[Si](C)(C)c2ccccc2)c1=O)c1ccc(Cl)cc1 [Compound 424]
bamyardgrass; [24]
  Barnyardgrass plant response rating: 0
bamyardgrass; [25]
  Barnyardgrass plant response rating: 0
bamyardgrass; Rate 62 g/ha, Postemergence (flood test species), scale of 0 to 10 where 0 is no effect and 10 is complete control
  Barnyardgrass plant response rating: 0
bamyardgrass; [26]
  Barnyardgrass plant response rating: 0
Sugar beet; [27]
  Sugarbeets plant response rating: 0
Sugar beet; [18]
  Sugarbeets plant response rating: 0
Sugar beet; [28]
  Plant response rating, Sugarbeets: 0
Sugar beet; [20]
  Plant response rating, Sugarbeets: 0
Sugar beet; [8]
  Sugarbeets plant response rating: 0
Sugar beet; [29]
  Sugarbeets plant response rating: 0
Sugar beet; [30]
  Sugarbeets plant response rating: 0
cocklebur; [27]
  Cocklebur plant response rating: 0
cocklebur; [18]
  Cocklebur plant response rating: 0
cocklebur; [28]
  Plant response rating, Cocklebur: 0
cocklebur; [20]
  Plant response rating, Cocklebur: 0
cocklebur; [8]
  Cocklebur plant response rating: 0
cocklebur; [29]
  Cocklebur plant response rating: 0
cocklebur; [10]
  Cocklebur plant response rating: 0
cocklebur; [30]
  Cocklebur plant response rating: 0
Smallflower flatsedge; [24]
  S. Flatsedge plant response rating: 0
Smallflower flatsedge; [25]
  S. Flatsedge plant response rating: 0
Smallflower flatsedge; [26]
  S. Flatsedge plant response rating: 0
